Reference: patent US11628179B2, “Compounds for treating and preventing extracellular histone mediated pathologies” (priority 2017, dated 2023)
Several values for one entry are separate records, joined by “and”; a condition that tells them apart may be missing. Equal entries are not always repeated.

Tests used:
[1] = tested on: Human platelets in whole blood; experiment: Histone-induced platelet degranulation (ATP release); format: cell-based; settings: compounds added prior to histones 400 μg/mL
human platelets = experiment: Histone-induced platelet aggregation; format: cell-based; settings: compounds added prior to histones 150 μg/mL
mice = experiment: In-vivo histone toxicity assay, organ damage markers at 4 hr; set-up: species or system mouse; settings: 6.25, 25 and 100 mg/kg i.p. 10 min prior to histones 50 mg/kg i.v.; blood at 4 hr
human liver microsomes = experiment: Phase I metabolism in human liver microsomes; settings: 1 μM, 1 h incubation, NADPH, 0.3 mg/ml microsomes
Procedure: (§1) A stock concentration of 25 μM mCBS dissolved in 50% methanol in water was added to the reaction tubes (10 μL). […] Samples were then vortex-mixed and centrifuged for 10 min at 14,000 rpm. Half of the samples (375 μl) were transferred to glass tubes and evaporated under a stream of nitrogen and at 37° C. Samples were then reconstituted in mobile phase A (250 μL). The final concentration of mCBS was 1 μM in the incubation medium.
(§2) The reaction mixtures were incubated for 1 hour with sampling in triplicate at 0, 15, 30, 45 and 60 min time points. A negative control (no NADPH) was used in parallel with the study samples. A positive control; midazolam, 25 μM (10 μL) was incubated in the same condition for 1 h. The final concentration of midazolam was 1 μM in the incubation medium

rat liver microsomes = experiment: Phase I metabolism in rat liver microsomes; settings: 1 μM, 1 h incubation, NADPH, 0.3 mg/ml microsomes
Procedure: as §1, §2

dog liver microsomes = experiment: Phase I metabolism in dog liver microsomes; settings: 1 μM, 1 h incubation, NADPH, 0.3 mg/ml microsomes
Procedure: as §1, §2

Sprague Dawley rats = tested on: Sprague Dawley rats
Procedure: This study examined acute toxicity from single IV administration of mCBS in rats with doses up to 1000 mg/kg.
The acute toxicity of β-O-methyl cellobioside sulfate (mCBS) was assessed in Sprague Dawley rats following intravenous administration of a single bolus dose. A total of five groups of n=3 adult female rats were treated with 10, 30, 100, 300 and 1000 mg/kg doses of mCBS test item in the form of the sodium salt (mCBS.Na) in this dose range finding study. […] The rats were then observed for 7 days prior to termination without necropsy.

Solubility in vehicle = format: physicochemical; settings: in water/aqueous
Procedure: The STX studies described below were carried out inter alia to provide a preliminary understanding of the toxicity and PK profile of β-O-methyl cellobioside sulfate compounds such as mCBS.Na utilised in the present invention.

Sprague-Dawley rats = settings: 5575 mg/kg/day of mCBS (free base), continuous IV infusion 7 days
Procedure: The objective of these studies was to determine the toxicity of the test item, mCBS, when administered by continuous (24 hours/day) intravenous infusion through a surgically implanted catheter for 7 consecutive days to Sprague-Dawley rats.
The test and control item dose formulations of mCBS (in the form of the heptasodium salt mCBS.Na) were administered to groups of rats by continuous (24 hours/day) intravenous infusion for 7 consecutive days as described in the Table 14 below.
Parameters monitored during this study included mortality, clinical observations, body weights and food consumption. In addition, hematology, coagulation and clinical chemistry parameters were evaluated on Day 9. Blood samples were collected from the animals at timepoints relative to the start of the infusion for analysis of test item concentration in plasma. At termination (Day 9), all animals were euthanized and subjected to a gross necropsy examination. Organ weights were measured on selected organs and a selected list of tissues, including gross lesions, were retained and prepared for microscopic evaluation.

[2] = mCBS vs CBS levels in phosphate buffered pH 7.5 clinical trial formulation stored at 2-8° C. (CAD); format: physicochemical
[3] = Lipid bilayer assay (histone rupture of bilayers)
Procedure: Lipid bilayer assays. Artificial lipid bilayers, prepared as previously described (Rebbeck, R. T. et al. The beta (1a) subunit of the skeletal DHPR binds to skeletal RyR1 and activates the channel via its 35-residue C-terminal tail. Biophys J 100, 922-930, doi:10.1016/j.bpj.2011.01.022 (2011).), separated symmetrical 150 mM or 250 mM KCl (pH ˜5.5) solutions. Histones (1 μM, 15.2 μg ml^−1) were added to bilayers alone or after 0.5-3 h incubation with 10 μM CBS (3.5 μg ml^−1) or 10 μM MTS (5.1 μg ml^−1) at −20° C. Current was recorded continuously after histone addition until the bilayers broke or the experiment was terminated.
To examine this possibility artificial lipid bilayers were prepared and their susceptibility to histone rupture detected by changes in current across the bilayers.

[4] = Stability of mCBS vs CBS in formulated clinical material (HPLC); format: physicochemical; settings: formulated clinical material in phosphate buffer, 5±3° C., 25±2° C./60% RH, 40±2° C./75% RH
Procedure: Stability studies were carried out at 5±3° C., 25±2° C./60% RH and 40±2° C./75% RH ° C. conditions. Levels of both mCBS and cellobiose sulfate (CBS) were tracked in formulated clinical material (i.e. mCBS in phosphate buffer) via HPLC.

Wistar rats [5] = experiment: Rat caecal ligation and puncture (CLP), severe sepsis; format: in vivo
Procedure: Rat caecal ligation and puncture (CLP) assay for sepsis. The CLP assay was performed in male Wistar rats as previously described (see Hubbard, W. J. et al. Cecal ligation and puncture. Shock 24 Suppl 1, 52-57 (2005).). Test compounds (50 mg kg^−1) dissolved in saline or an equivalent volume of saline only (Control cohort) were administered i.p. 5 min pre-CLP and 5, 10 and 15 h post-op until cessation of the experiment at 20 h. Sham-CLP rats underwent the same procedure, however, the caecum was not ligated or punctured and these rats received saline at the same times as above. At the conclusion of the experimental time period (20 h) or when morbidity required ethical euthanasia, the rats were anaesthetised and blood was collected via cardiac puncture into EDTA for subsequent analysis of liver (ALT) and kidney (creatinine) function by the Department of Pathology, The Canberra Hospital. The propensity for clots to form within the blood samples of the saline treated control CLP animals (despite the presence of EDTA) prevented successful analysis of plasma samples from all animals.

human RBCs [6] = experiment: Histone-induced RBC fragility / lysis under shear; format: cell-based; settings: 0-200 μg/mL prior to 400 μg/mL histones 60 min; 100 mm/s, 40× repetitions
human RBCs [7] = experiment: Histone-induced RBC aggregation (flow cytometry autofluorescence, SEM); format: cell-based; settings: 0-200 μg/mL added prior to 400 μg/mL histones
[8] = mCBS vs CBS levels in bulk powder stored at −20° C. (CAD); format: physicochemical
Procedure: Table 2b compares mCBS vs CBS levels in a representative batch of bulk powder when stored at −20° C. over 24 months. T is for time in months. T=0 or T0 represents analytical results carried out on completion of manufacture. Subsequent analysis indicated are relative to the initial analysis of the drug powder or formulation (e.g. […] Analytical method employing CAD (Charged Aerosol Detector) was used to measure the level of mCBS purity and its impurities and expressed as CAD %.

C57BL/6 mice = experiment: Murine deep vein thrombosis (DVT) model, histone-mediated; format: in vivo, mouse; settings: CBS 50 mg/kg i.v. 5 min after histones 10 mg/kg i.v., 48 h
Procedure: Murine deep vein thrombosis (DVT) model. The procedure used is largely as previously described (see Brill, A. et al. Neutrophil extracellular traps promote deep vein thrombosis in mice. J Thromb Haemost 10, 136-144, doi: 10.1111/j.1538-7836.2011.04544.x (2012)). […] The peritoneum and skin were closed following which all mice received an i.v. injection of histones via the tail vein (10 mg kg^−1) or an equivalent volume of saline followed 5 min later by an i.v. injection of test compounds (50 mg kg^−1) or saline. Mice were monitored for 48 h after which they were re-anesthetised, re-opened and any thrombi that had developed distal to the IVC stenosis were removed for analysis. Sham operated control animals received laparotomy and 90% ligation of the IVC, however the ligation was removed immediately after occlusion of the IVC.

Wistar rats [9] = experiment: Rat cardiac IRI model; format: in vivo; settings: 30 mg kg−1 into left ventricle 5 min prior to reperfusion
Procedure: Rat cardiac IRI model. […] Male Wistar rats were anaesthetised with isofluorane, intubated via tracheostomy and ventilated with a tidal volume of 1 ml 150 g^−1 and a respiratory rate of 65 breaths min^−1. Supplemental oxygen was delivered at a FiO2 of ˜30%. A left hemi-thoracotomy was performed to enable visualisation of the left ventricle. The left coronary arterial plexus (LCA) was occluded using an atraumatic snare for 30 min prior to reperfusion for 30 min. Ischemia was confirmed by myocardial hyperaemia. The test compounds (30 mg kg^−1) or an equivalent volume (200 μl) of saline were injected into the lumen of the left ventricle (confirmed with aspiration) 5 min prior to the release of the snare for the reperfusion phase.
At the conclusion of reperfusion (30 min), Thioflavin S (1 ml 200 g^−1 of body weight) was slowly injected into the lumen of the left ventricle, to define the territory of microvascular obstruction (MVO) within the ischemic zone (IZ). The IZ territory was determined by the re-occlusion of the atraumatic snare and infusion of blue microspheres into the left ventricle (Unisperse Blue, BASF), distributed within solutions via ultrasonication using a CD-6800 (Unisonics) sonicator. […] Planimetry (Image J, Freeware) was used to quantify the areas of the IZ, MVO and necrosis.

whole blood coagulation = experiment: ROTEM whole blood coagulation analysis (anticoagulant effect of compounds); settings: NATEM assay, 50 and 100 μg/mL

Compound: O=C[C@H](O)[C@@H](O)[C@H](O[C@@H]1O[C@H](CO)[C@@H](O)[C@H](O)[C@H]1O)[C@H](O)CO [CB, cellobiose]
- histone-induced platelet degranulation (ATP release) [1]: no inhibitory activity
- histone-induced platelet aggregation (human platelets): no inhibitory activity
- protection from histone-induced organ damage (LDH, ALT, creatinine) (mice): inactive

Compound: Cc1ncc2n1-c1ccc(Cl)cc1C(c1ccccc1F)=NC2 [midazolam]
- phase I metabolic stability (human liver microsomes): almost completely metabolised
- phase I metabolic stability (rat liver microsomes): almost completely metabolised
- phase I metabolic stability (dog liver microsomes): almost completely metabolised

Compound: Sodium β-O-Methyl Cellobioside Sulfate [mCBS.Na]
- MTD estimate from potency assessment, sodium salt (Sprague Dawley rats; IV bolus single and 7-day studies, corrected for potency): ~745 mg/kg
- maximum tolerated dose (MTD) (Sprague Dawley rats; single IV bolus, female rats, 7 days observation, dose as sodium salt): 1000 mg/kg
- Solubility in Vehicle (Solubility in vehicle): ~250 mg/mL in water/aqueous
- mortality (Sprague-Dawley rats): death of one female

Compound: cellobiose sulfate [CBS]
- histone-induced platelet degranulation (ATP release) [1]: significantly reduced
- level in phosphate buffered pH 7.5 formulation ([2]; 2-8° C., T0 (months)): 0.25 CAD %
- level in phosphate buffered pH 7.5 formulation ([2]; 2-8° C., T2): 0.03 CAD %
- level in phosphate buffered pH 7.5 formulation ([2]; 2-8° C., T3): 0.07 CAD %
- level in phosphate buffered pH 7.5 formulation ([2]; 2-8° C., T7): 0.03 CAD %
- level in phosphate buffered pH 7.5 formulation ([2]; 2-8° C., T10): 0.04 CAD %
- level in phosphate buffered pH 7.5 formulation ([2]; 2-8° C., T13): 0.04 CAD %
- level in phosphate buffered pH 7.5 formulation ([2]; 2-8° C., T19): <0.03 CAD %
- stability when stored in aqueous buffered solution ([2]; 2-8° C., over 18 months): highly unstable
- level reduced to (detection limit) ([2]; aqueous buffered solution, within 3-6 month of storage at 2-8° C.): 0.03 CAD %
- incidence of rapid bilayer rupture ([3]; histones 1 μM + CBS, 3 of 52 bilayers, within 0.3 to 0.5 min): 5.8%
- average bilayer lifetime ([3]; histones 1 μM in the presence of CBS 10 μM): 18 ± 4 min and 36 ± 5 min
- level relative to starting amount (T=0) over time [4]: drops very rapidly and is almost gone by around 3 months
- high ALT and creatinine levels (liver and kidney damage) (Wistar rats [5]; CBS treated animals): not seen
- mortality (Wistar rats [5]; CBS treatment group vs controls): no mortalities
- inhibition of histone-induced RBC lysis under shear (human RBCs [6]): inhibit histone-induced lysis under shear in a dose-dependent manner
- histone-induced platelet aggregation (human platelets): significantly reduced
- inhibition of histone-induced RBC aggregation (human RBCs [7]): inhibit histone-induced RBC aggregation in a dose dependent manner
- stability when stored in powder ([8]; 24 months): stable
- level in bulk powder ([8]; T0 (months)): 0.23 CAD %
- level in bulk powder ([8]; T1): 0.25 CAD %
- level in bulk powder ([8]; T3): 0.28 CAD %
- level in bulk powder ([8]; T6): 0.32 CAD %
- level in bulk powder ([8]; T9): 0.36 CAD %
- level in bulk powder ([8]; T12): 0.36 CAD %
- level in bulk powder ([8]; T18): 0.36 CAD %
- level in bulk powder ([8]; T24): 0.29 CAD %
- histone-mediated deep vein thrombosis (C57BL/6 mice): almost totally inhibited
- area of microvascular obstruction (Wistar rats [9]): significantly reduced
- reduction of myocardial necrosis in the ischemic zone (Wistar rats [9]): 50%
- protection from histone-induced organ damage (LDH, ALT, creatinine) (mice): protects animals from histone-mediated injury

Compound: melezitose sulfate
- clot formation (whole blood coagulation): No clotting was detected
- clot formation (whole blood coagulation; listed as melezitose): no clot was detected
